# Target: angiotensin-converting enzyme (ACE) (Homo sapiens, UniProt P12821)
# Assay: Angiotensin-converting enzyme (ACE) inhibitory assay (N-hippuryl-His-Leu substrate, HPLC detection of hippuric acid)
# Type: biochemical
# Conditions: 37 °C, 60 min, captopril positive control, read-out: IC50 against angiotensin-converting enzyme (ACE)
# Method: ACE inhibitory activity was determined by a previously reported method. In brief, 20 μL thiodiketopiperazines dissolved in DMSO with different concentrations were added to 120 μL N-hippuryl–His–Leu substrates, then preheated in water for 3–5 min; next, 10 μL ACE enzymatic solution was added and mixtures were incubated at 37 °C for 60 min, and 150 μL 1 M HCl was added to stop the reaction. The mixture was loaded for HPLC with a flow rate of 0.5 mL/min by 60% methanol, and the absorbance at 228 nm was detected. To serve as a blank, 10 μL pH 8.3 boric acid replaced the thiodiketopiperazines. Hippuric acid solutions at 10, 20, 40, 60, 80, and 100 μg/mL were prepared using 10 μL pH 8.3 boric acid. One enzymatic unit was defined as the amount giving the production of 1 μM hippuric acid by the catalyzation of the substrate N-hippuryl–His–Leu at 37 °C in 1 min. Captopril was used as a positive control.
# Sequence of angiotensin-converting enzyme (ACE) (P12821 30-1306, species assumed): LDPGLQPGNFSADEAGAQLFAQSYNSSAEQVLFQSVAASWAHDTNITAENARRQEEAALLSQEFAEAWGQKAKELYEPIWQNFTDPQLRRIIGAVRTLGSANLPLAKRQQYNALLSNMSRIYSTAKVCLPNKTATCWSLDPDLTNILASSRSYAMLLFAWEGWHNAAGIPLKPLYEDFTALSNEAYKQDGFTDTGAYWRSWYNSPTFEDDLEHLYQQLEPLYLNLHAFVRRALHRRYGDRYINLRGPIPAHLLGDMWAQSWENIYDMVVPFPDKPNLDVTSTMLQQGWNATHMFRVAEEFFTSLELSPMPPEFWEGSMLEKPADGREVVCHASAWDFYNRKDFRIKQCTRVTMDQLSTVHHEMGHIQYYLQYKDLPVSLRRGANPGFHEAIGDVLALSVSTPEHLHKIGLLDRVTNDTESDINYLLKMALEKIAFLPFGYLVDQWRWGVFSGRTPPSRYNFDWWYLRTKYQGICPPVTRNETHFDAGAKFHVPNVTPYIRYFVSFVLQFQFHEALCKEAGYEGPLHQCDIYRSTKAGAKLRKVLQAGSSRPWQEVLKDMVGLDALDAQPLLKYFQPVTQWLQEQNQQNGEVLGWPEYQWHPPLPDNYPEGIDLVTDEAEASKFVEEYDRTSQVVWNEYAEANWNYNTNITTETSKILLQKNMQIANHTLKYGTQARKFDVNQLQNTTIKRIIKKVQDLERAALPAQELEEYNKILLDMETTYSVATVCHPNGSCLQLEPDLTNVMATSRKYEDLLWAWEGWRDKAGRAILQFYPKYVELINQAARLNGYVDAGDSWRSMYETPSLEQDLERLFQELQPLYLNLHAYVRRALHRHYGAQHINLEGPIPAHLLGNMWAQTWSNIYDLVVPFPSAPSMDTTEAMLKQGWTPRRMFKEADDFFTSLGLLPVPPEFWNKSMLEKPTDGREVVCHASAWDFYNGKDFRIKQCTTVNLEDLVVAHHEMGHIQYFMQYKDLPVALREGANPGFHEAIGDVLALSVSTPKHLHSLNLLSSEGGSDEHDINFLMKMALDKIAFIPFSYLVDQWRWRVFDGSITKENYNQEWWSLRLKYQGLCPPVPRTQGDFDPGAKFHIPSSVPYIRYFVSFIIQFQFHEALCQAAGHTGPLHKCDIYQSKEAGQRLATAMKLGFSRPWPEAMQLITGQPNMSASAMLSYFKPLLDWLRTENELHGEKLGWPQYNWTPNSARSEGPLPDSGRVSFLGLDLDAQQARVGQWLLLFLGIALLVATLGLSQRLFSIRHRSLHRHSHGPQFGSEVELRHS
row,SMILES,IC50
1,"COC12CC3(O)C(SC)C=CC(OC(C)=O)C3N1C(=O)C(CO)(SC)N(C)C2=O (stereo not drawn) [Compound 1, geospallin A]",35 ± 5.2 µM
2,"CSC1C=CC(OC(C)=O)C2N3C(=O)C(CO)(SC)N(C)C(=O)C3(O)CC12O (stereo not drawn) [Compound 2, geospallin B]",31 ± 3.3 µM
3,"CSC1(CO)C(=O)N2C3C(OC(C)=O)C(=O)C=CC3(O)CC2(SC)C(=O)N1C (stereo not drawn) [Compound 3, geospallin C]",29 ± 3.3 µM

# Reference: article PMC6315564, “Geospallins A–C: New Thiodiketopiperazines with Inhibitory Activity against Angiotensin-Converting Enzyme from a Deep-Sea-Derived Fungus Geosmithia pallida FS140” (Marine Drugs, 2018)
